≈ marks a conversion by molar mass, not a printed value.
Key:
Assay type in all cases: functional
Escherichia coli [1] = test: Antimicrobial activity against Escherichia coli MTCC 443 by agar cup diffusion method
Staphylococcus aureus [2] = test: Antimicrobial activity against Staphylococcus aureus MTCC 96 assessed as diameter of growth inhibition zone at 100 ug/ml after 18-24 hr by agar cup diffusion method; details: read-out: DIZ
Escherichia coli [3] = test: Antimicrobial activity against Escherichia coli MTCC 443 assessed as diameter of growth inhibition zone at 250 ug/ml after 18-24 hr by agar cup diffusion method; details: read-out: DIZ
Candida albicans [4] = test: Antimicrobial activity against Candida albicans MTCC 227 assessed as diameter of growth inhibition zone at 50 ug/ml after 48-96 hr by agar cup diffusion method; details: read-out: DIZ
Trichophyton rubrum [5] = test: Antimicrobial activity against Trichophyton rubrum MTCC 296 assessed as diameter of growth inhibition zone at 250 ug/ml after 48-96 hr by agar cup diffusion method; details: read-out: DIZ
Escherichia coli [6] = test: Antimicrobial activity against Escherichia coli MTCC 443 assessed as diameter of growth inhibition zone at 50 ug/ml after 18-24 hr by agar cup diffusion method; details: read-out: DIZ
Candida albicans [7] = test: Antimicrobial activity against Candida albicans MTCC 227 by agar cup diffusion method
Streptococcus pyogenes [8] = test: Antimicrobial activity against Streptococcus pyogenes MTCC 442 assessed as diameter of growth inhibition zone at 50 ug/ml after 18-24 hr by agar cup diffusion method; details: read-out: DIZ
Klebsiella pneumoniae [9] = test: Antimicrobial activity against Klebsiella pneumoniae MTCC 109 assessed as diameter of growth inhibition zone at 25 ug/ml after 18-24 hr by agar cup diffusion method; details: read-out: DIZ
Klebsiella pneumoniae [10] = test: Antimicrobial activity against Klebsiella pneumoniae MTCC 109 assessed as diameter of growth inhibition zone at 100 ug/ml after 18-24 hr by agar cup diffusion method; details: read-out: DIZ
Aspergillus clavatus [11] = test: Antimicrobial activity against Aspergillus clavatus MTCC 1323 by agar cup diffusion method
Trichophyton rubrum [12] = test: Antimicrobial activity against Trichophyton rubrum MTCC 296 assessed as diameter of growth inhibition zone at 25 ug/ml after 48-96 hr by agar cup diffusion method; details: read-out: DIZ
Klebsiella pneumoniae [13] = test: Antimicrobial activity against Klebsiella pneumoniae MTCC 109 assessed as diameter of growth inhibition zone at 50 ug/ml after 18-24 hr by agar cup diffusion method; details: read-out: DIZ
Pseudomonas aeruginosa [14] = test: Antimicrobial activity against Pseudomonas aeruginosa MTCC 1688 assessed as diameter of growth inhibition zone at 250 ug/ml after 18-24 hr by agar cup diffusion method; details: read-out: DIZ
Penicillium [15] = test: Antimicrobial activity against Penicillium wild strain assessed as diameter of growth inhibition zone at 50 ug/ml after 48-96 hr by agar cup diffusion method; details: read-out: DIZ
Staphylococcus aureus [16] = test: Antimicrobial activity against Staphylococcus aureus MTCC 96 assessed as diameter of growth inhibition zone at 25 ug/ml after 18-24 hr by agar cup diffusion method; details: read-out: DIZ
Candida albicans [17] = test: Antimicrobial activity against Candida albicans MTCC 227 assessed as diameter of growth inhibition zone at 250 ug/ml after 48-96 hr by agar cup diffusion method; details: read-out: DIZ
Aspergillus clavatus [18] = test: Antimicrobial activity against Aspergillus clavatus MTCC 1323 assessed as diameter of growth inhibition zone at 25 ug/ml after 48-96 hr by agar cup diffusion method; details: read-out: DIZ
Penicillium [19] = test: Antimicrobial activity against Penicillium wild strain assessed as diameter of growth inhibition zone at 100 ug/ml after 48-96 hr by agar cup diffusion method; details: read-out: DIZ
Streptococcus pyogenes [20] = test: Antimicrobial activity against Streptococcus pyogenes MTCC 442 assessed as diameter of growth inhibition zone at 100 ug/ml after 18-24 hr by agar cup diffusion method; details: read-out: DIZ
Klebsiella pneumoniae [21] = test: Antimicrobial activity against Klebsiella pneumoniae MTCC 109 by agar cup diffusion method
Streptococcus pyogenes [22] = test: Antimicrobial activity against Streptococcus pyogenes MTCC 442 assessed as diameter of growth inhibition zone at 25 ug/ml after 18-24 hr by agar cup diffusion method; details: read-out: DIZ
Escherichia coli [23] = test: Antimicrobial activity against Escherichia coli MTCC 443 assessed as diameter of growth inhibition zone at 100 ug/ml after 18-24 hr by agar cup diffusion method; details: read-out: DIZ
Streptococcus pyogenes [24] = test: Antimicrobial activity against Streptococcus pyogenes MTCC 442 by agar cup diffusion method
Streptococcus pyogenes [25] = test: Antimicrobial activity against Streptococcus pyogenes MTCC 442 assessed as diameter of growth inhibition zone at 250 ug/ml after 18-24 hr by agar cup diffusion method; details: read-out: DIZ
Staphylococcus aureus [26] = test: Antimicrobial activity against Staphylococcus aureus MTCC 96 assessed as diameter of growth inhibition zone at 50 ug/ml after 18-24 hr by agar cup diffusion method; details: read-out: DIZ
Staphylococcus aureus [27] = test: Antimicrobial activity against Staphylococcus aureus MTCC 96 assessed as diameter of growth inhibition zone at 250 ug/ml after 18-24 hr by agar cup diffusion method; details: read-out: DIZ
Pseudomonas aeruginosa [28] = test: Antimicrobial activity against Pseudomonas aeruginosa MTCC 1688 assessed as diameter of growth inhibition zone at 50 ug/ml after 18-24 hr by agar cup diffusion method; details: read-out: DIZ
Trichophyton rubrum [29] = test: Antimicrobial activity against Trichophyton rubrum MTCC 296 assessed as diameter of growth inhibition zone at 50 ug/ml after 48-96 hr by agar cup diffusion method; details: read-out: DIZ
Klebsiella pneumoniae [30] = test: Antimicrobial activity against Klebsiella pneumoniae MTCC 109 assessed as diameter of growth inhibition zone at 250 ug/ml after 18-24 hr by agar cup diffusion method; details: read-out: DIZ
Pseudomonas aeruginosa [31] = test: Antimicrobial activity against Pseudomonas aeruginosa MTCC 1688 assessed as diameter of growth inhibition zone at 100 ug/ml after 18-24 hr by agar cup diffusion method; details: read-out: DIZ
Pseudomonas aeruginosa [32] = test: Antimicrobial activity against Pseudomonas aeruginosa MTCC 1688 by agar cup diffusion method
Candida albicans [33] = test: Antimicrobial activity against Candida albicans MTCC 227 assessed as diameter of growth inhibition zone at 100 ug/ml after 48-96 hr by agar cup diffusion method; details: read-out: DIZ
Aspergillus clavatus [34] = test: Antimicrobial activity against Aspergillus clavatus MTCC 1323 assessed as diameter of growth inhibition zone at 250 ug/ml after 48-96 hr by agar cup diffusion method; details: read-out: DIZ
Penicillium [35] = test: Antimicrobial activity against Penicillium wild strain by agar cup diffusion method
Aspergillus clavatus [36] = test: Antimicrobial activity against Aspergillus clavatus MTCC 1323 assessed as diameter of growth inhibition zone at 50 ug/ml after 48-96 hr by agar cup diffusion method; details: read-out: DIZ
Penicillium [37] = test: Antimicrobial activity against Penicillium wild strain assessed as diameter of growth inhibition zone at 250 ug/ml after 48-96 hr by agar cup diffusion method; details: read-out: DIZ
Penicillium [38] = test: Antimicrobial activity against Penicillium wild strain assessed as diameter of growth inhibition zone at 25 ug/ml after 48-96 hr by agar cup diffusion method; details: read-out: DIZ
Candida albicans [39] = test: Antimicrobial activity against Candida albicans MTCC 227 assessed as diameter of growth inhibition zone at 25 ug/ml after 48-96 hr by agar cup diffusion method; details: read-out: DIZ
Escherichia coli [40] = test: Antimicrobial activity against Escherichia coli MTCC 443 assessed as diameter of growth inhibition zone at 25 ug/ml after 18-24 hr by agar cup diffusion method; details: read-out: DIZ
Aspergillus clavatus [41] = test: Antimicrobial activity against Aspergillus clavatus MTCC 1323 assessed as diameter of growth inhibition zone at 100 ug/ml after 48-96 hr by agar cup diffusion method; details: read-out: DIZ
Trichophyton rubrum [42] = test: Antimicrobial activity against Trichophyton rubrum MTCC 296 by agar cup diffusion method
Trichophyton rubrum [43] = test: Antimicrobial activity against Trichophyton rubrum MTCC 296 assessed as diameter of growth inhibition zone at 100 ug/ml after 48-96 hr by agar cup diffusion method; details: read-out: DIZ
Pseudomonas aeruginosa [44] = test: Antimicrobial activity against Pseudomonas aeruginosa MTCC 1688 assessed as diameter of growth inhibition zone at 25 ug/ml after 18-24 hr by agar cup diffusion method; details: read-out: DIZ
Staphylococcus aureus [45] = test: Antimicrobial activity against Staphylococcus aureus MTCC 96 by agar cup diffusion method

O=C(/C=C/c1cccc([N+](=O)[O-])c1)C1C(=O)NC(=S)NC1=O
MBC (Escherichia coli [1]): 100 µg/mL (≈ 313 µM)
MIC (Escherichia coli [1]): 100 µg/mL (≈ 313 µM)
zone of inhibition at 100 µg/mL (Staphylococcus aureus [2]): 17 mm
zone of inhibition at 250 µg/mL (Escherichia coli [3]): 18 mm
zone of inhibition at 50 µg/mL (Candida albicans [4]): 22 mm
zone of inhibition at 250 µg/mL (Trichophyton rubrum [5]): 27 mm
zone of inhibition at 50 µg/mL (Escherichia coli [6]): 17 mm
MFC (Candida albicans [7]): 1000 µg/mL (≈ 3130 µM)
MIC (Candida albicans [7]): 1000 µg/mL (≈ 3130 µM)
zone of inhibition at 50 µg/mL (Streptococcus pyogenes [8]): 17 mm
zone of inhibition at 25 µg/mL (Klebsiella pneumoniae [9]): 10 mm
zone of inhibition at 100 µg/mL (Klebsiella pneumoniae [10]): 17 mm
MFC (Aspergillus clavatus [11]): 1000 µg/mL (≈ 3130 µM)
MIC (Aspergillus clavatus [11]): 1000 µg/mL (≈ 3130 µM)
zone of inhibition at 25 µg/mL (Trichophyton rubrum [12]): 18 mm
zone of inhibition at 50 µg/mL (Klebsiella pneumoniae [13]): 14 mm
zone of inhibition at 250 µg/mL (Pseudomonas aeruginosa [14]): 19 mm
zone of inhibition at 50 µg/mL (Penicillium [15]): 20 mm
zone of inhibition at 25 µg/mL (Staphylococcus aureus [16]): 14 mm
zone of inhibition at 250 µg/mL (Candida albicans [17]): 24 mm
zone of inhibition at 25 µg/mL (Aspergillus clavatus [18]): 20 mm
zone of inhibition at 100 µg/mL (Penicillium [19]): 21 mm
zone of inhibition at 100 µg/mL (Streptococcus pyogenes [20]): 18 mm
MBC (Klebsiella pneumoniae [21]): 100 µg/mL (≈ 313 µM)
MIC (Klebsiella pneumoniae [21]): 62.5 µg/mL (≈ 196 µM)
zone of inhibition at 25 µg/mL (Streptococcus pyogenes [22]): 15 mm
zone of inhibition at 100 µg/mL (Escherichia coli [23]): 18 mm
MBC (Streptococcus pyogenes [24]): 250 µg/mL (≈ 783 µM)
MIC (Streptococcus pyogenes [24]): 200 µg/mL (≈ 626 µM)
zone of inhibition at 250 µg/mL (Streptococcus pyogenes [25]): 18 mm
zone of inhibition at 50 µg/mL (Staphylococcus aureus [26]): 16 mm
zone of inhibition at 250 µg/mL (Staphylococcus aureus [27]): 19 mm
zone of inhibition at 50 µg/mL (Pseudomonas aeruginosa [28]): 16 mm
zone of inhibition at 50 µg/mL (Trichophyton rubrum [29]): 21 mm
zone of inhibition at 250 µg/mL (Klebsiella pneumoniae [30]): 18 mm
zone of inhibition at 100 µg/mL (Pseudomonas aeruginosa [31]): 17 mm
MBC (Pseudomonas aeruginosa [32]): 200 µg/mL (≈ 626 µM)
MIC (Pseudomonas aeruginosa [32]): 125 µg/mL (≈ 391 µM)
zone of inhibition at 100 µg/mL (Candida albicans [33]): 23 mm
zone of inhibition at 250 µg/mL (Aspergillus clavatus [34]): 24 mm
MFC (Penicillium [35]): 1000 µg/mL (≈ 3130 µM)
MIC (Penicillium [35]): 1000 µg/mL (≈ 3130 µM)
zone of inhibition at 50 µg/mL (Aspergillus clavatus [36]): 22 mm
zone of inhibition at 250 µg/mL (Penicillium [37]): 22 mm
zone of inhibition at 25 µg/mL (Penicillium [38]): 18 mm
zone of inhibition at 25 µg/mL (Candida albicans [39]): 21 mm
zone of inhibition at 25 µg/mL (Escherichia coli [40]): 15 mm
zone of inhibition at 100 µg/mL (Aspergillus clavatus [41]): 22 mm
MFC (Trichophyton rubrum [42]): 1000 µg/mL (≈ 3130 µM)
MIC (Trichophyton rubrum [42]): 1000 µg/mL (≈ 3130 µM)
zone of inhibition at 100 µg/mL (Trichophyton rubrum [43]): 22 mm
zone of inhibition at 25 µg/mL (Pseudomonas aeruginosa [44]): 14 mm
MBC (Staphylococcus aureus [45]): 250 µg/mL (≈ 783 µM)
MIC (Staphylococcus aureus [45]): 200 µg/mL (≈ 626 µM)

Reference: ChEMBL document CHEMBL3044736, “Synthesis, characterization, solvatochromic properties, and antimicrobial evaluation of 5-acetyl-2-thioxo-dihydro-pyrimidine-4,6-dione-based chalcones” (2013)
